Assay results published in patent US12503484B2, “Androstane derivatives with activity as pure or predominantly pure stimulators of SERCA2a for the treatment of heart failure” (Seismic Pharmaceuticals, priority 2019, dated 2025).
Where a name gives a salt, the structure may show the parent alone.

How the values were obtained:
[1] = target: Transporter, Norepinephrine (NET) (Homo sapiens (Human), UniProt P23975); test: Receptor binding assay panel: Transporter, Norepinephrine (NET)
Procedure: (§1) Radioligand binding to a panel of receptors was carried out by Eurofins on crude membrane preparations according to published procedures and by using appropriate reference standard (Eurofin, Taiwan, compound code CVie216-3 (1226840), study #TW04-0004235, quote #TW04-0004235-Q04, for Cvie Therapeutics Limited, Taiwan). […] was tested at the concentration of 10 μM.

[2] = target: Nitric Oxide Synthase, Endothelial (eNOS) (Bos taurus (Bovine), UniProt P29473); test: Receptor binding assay panel: Nitric Oxide Synthase, Endothelial (eNOS); assay type: biochemical
[3] = target: Ryanodine RyR3 (Rattus norvegicus, UniProt A0ABK0LPH6); test: Receptor binding assay panel: Ryanodine RyR3
[4] = system: STZ diabetic rats; test: Haemodynamics in streptozotocin diabetic rats (echocardiography); assay type: in vivo, rat
Procedure: CVie214 and CVie216 were tested in a diabetic rat model. Briefly, rats were injected with streptozotocin (STZ). After 7-9 weeks from STZ injection, rats were submitted to transthoracic echocardiographic and Doppler evaluation performed under urethane anesthesia. Two-dimensionally guided M-mode recordings were used to obtain short-axis measurements of left ventricular end-diastolic diameter (LVEDD), left ventricular end-systolic diameter (LVESD), posterior (PW) and septal (SW) diastolic wall thickness according to the American Society of Echocardiography guidelines (Lang R M et al., Eur J Echocardiography 2006, 7:79-108). Fractional shortening was calculated as FS=(LVEDD−LVESD)/LVEDD. Relative wall thickness was calculated as PWTd+IVSTd/LVEDD. Mitral inflow was measured by pulsed Doppler at the tips of mitral leaflets from an apical 4-chamber view to obtain early and late filling velocities (E, A) and deceleration time of early filling velocity (DT). The deceleration slope was calculated as E/DT ratio. The mitral deceleration index was calculated as DT/E ratio. Tissue Doppler Imaging (TDI) was evaluated from the apical 4-chamber view to record septal mitral annular movements, i.e., peak myocardial systolic (s′) and early and late diastolic velocity (e′ and a′).
After baseline hemodynamic measurements were taken, the rats were administered Digoxin, CVie214, CVie216 and compared to control. Digoxin, used as reference drug, was intravenously infused at 0.11 mg/kg/min for 15 min and echocardiographic parameters measured after 1 h. CVie214-salt and CVie216-salt were intravenously infused in STZ diabetic rats at 0.2 mg/kg/min and echocardiographic parameters were measured after 15 min and 30 min.
Tables 4-6 show the haemodynamic parameters in STZ diabetic rats for Digoxin, CVie214-salt, and Cvie216-salt.

[5] = target: Angiotensin AT2 (Homo sapiens (Human), UniProt P50052); test: Receptor binding assay panel: Angiotensin AT2
[6] = target: Progesterone PR-B (Homo sapiens (Human), UniProt P06401); test: Receptor binding assay panel: Progesterone PR-B
[7] = system: Sodium Channel, Site 2; test: Receptor binding assay panel: Sodium Channel, Site 2; design: species or system rat; settings: 10 μM
[8] = target: Adrenergic α1A (Rattus norvegicus (Rat), UniProt P43140); test: Receptor binding assay panel: Adrenergic α1A
[9] = target: Sigma σ1 (Homo sapiens (Human), UniProt Q99720); test: Receptor binding assay panel: Sigma σ1
[10] = target: Protein Tyrosine Kinase, Src (Homo sapiens (Human), UniProt P12931); test: Receptor binding assay panel: Protein Tyrosine Kinase, Src; assay type: biochemical
[11] = target: Protein Tyrosine Kinase, ABL1 (Homo sapiens (Human), UniProt P00519); test: Receptor binding assay panel: Protein Tyrosine Kinase, ABL1; assay type: biochemical
[12] = Acute toxicity in the mouse; settings: Albino Swiss CD-1, in vivo
Procedure: The acute toxicity of the tested compound CVie214-salt and CVie216-salt have been determined in the mouse (Albino Swiss CD-1, body weight 30 g). Compounds have been orally administered or intravenously injected at increasing doses to identify the dose causing 50% mortality. Mortality occurred within 30 min after the administration and survival after 24 h.
As comparison, the acute toxicity for the reference compounds Digoxin and Istaroxime were also included. Digoxin refers to literature data (www.lookchem.com, Reference for Digoxin intravenous: Afifi A M, Ammar E M. Pharmacological Research Communications. Vol. 6, Pg. 417, 1974; Reference for Digoxin oral: Archives Internationales de Pharmacodynamie et de Therapie. Vol. 153, Pg. 436, 1965) (Table 3).

[13] = target: Insulin (Rattus norvegicus (Rat), UniProt P15127); test: Receptor binding assay panel: Insulin
[14] = target: Aldosterone (Rattus norvegicus (Rat), UniProt P22199); test: Receptor binding assay panel: Aldosterone
[15] = target: Adrenergic α2A (Homo sapiens (Human), UniProt P08913); test: Receptor binding assay panel: Adrenergic α2A
Procedure: as §1

[16] = target: Peptidase, Renin (Homo sapiens (Human), UniProt P00797); test: Receptor binding assay panel: Peptidase, Renin; assay type: biochemical
[17] = system: Serotonin (5-Hydroxytryptamine) 5-HT1, non selective; test: Receptor binding assay panel: Serotonin (5-Hydroxytryptamine) 5-HT1, non selective; design: species or system rat; settings: 10 μM
[18] = target: Dopamine D3 (Homo sapiens (Human), UniProt P35462); test: Receptor binding assay panel: Dopamine D3
[19] = target: Estrogen ERα (Homo sapiens (Human), UniProt P03372); test: Receptor binding assay panel: Estrogen ERα
[20] = target: Peptidase, Angiotensin Converting Enzyme (Oryctolagus cuniculus (Rabbit), UniProt P12822); test: Receptor binding assay panel: Peptidase, Angiotensin Converting Enzyme; assay type: biochemical
[21] = after 15 min IV infusion 0.2 mg/kg/min
[22] = after 30 min IV infusion 0.2 mg/kg/min

Insulin, sequence (P15127 27-759): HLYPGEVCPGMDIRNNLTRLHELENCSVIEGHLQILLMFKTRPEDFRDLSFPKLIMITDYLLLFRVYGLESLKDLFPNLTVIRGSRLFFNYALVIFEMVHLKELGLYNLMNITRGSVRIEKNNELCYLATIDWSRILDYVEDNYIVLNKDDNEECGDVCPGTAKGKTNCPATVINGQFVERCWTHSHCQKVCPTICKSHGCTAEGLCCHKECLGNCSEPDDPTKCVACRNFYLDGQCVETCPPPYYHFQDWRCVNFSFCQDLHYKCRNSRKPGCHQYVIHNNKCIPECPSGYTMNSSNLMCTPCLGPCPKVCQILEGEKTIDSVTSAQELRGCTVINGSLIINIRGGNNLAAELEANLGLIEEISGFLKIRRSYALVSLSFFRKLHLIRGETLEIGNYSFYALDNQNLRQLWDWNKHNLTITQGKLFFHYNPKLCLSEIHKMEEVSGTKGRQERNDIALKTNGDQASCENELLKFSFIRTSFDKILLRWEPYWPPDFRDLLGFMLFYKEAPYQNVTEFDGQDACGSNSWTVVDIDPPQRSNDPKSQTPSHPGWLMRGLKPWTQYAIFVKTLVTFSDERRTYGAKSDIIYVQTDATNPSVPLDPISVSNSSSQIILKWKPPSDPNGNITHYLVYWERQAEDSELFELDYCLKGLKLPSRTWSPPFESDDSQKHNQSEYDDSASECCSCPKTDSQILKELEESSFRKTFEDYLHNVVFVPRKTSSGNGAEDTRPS
Angiotensin AT2, sequence (P50052 whole entry): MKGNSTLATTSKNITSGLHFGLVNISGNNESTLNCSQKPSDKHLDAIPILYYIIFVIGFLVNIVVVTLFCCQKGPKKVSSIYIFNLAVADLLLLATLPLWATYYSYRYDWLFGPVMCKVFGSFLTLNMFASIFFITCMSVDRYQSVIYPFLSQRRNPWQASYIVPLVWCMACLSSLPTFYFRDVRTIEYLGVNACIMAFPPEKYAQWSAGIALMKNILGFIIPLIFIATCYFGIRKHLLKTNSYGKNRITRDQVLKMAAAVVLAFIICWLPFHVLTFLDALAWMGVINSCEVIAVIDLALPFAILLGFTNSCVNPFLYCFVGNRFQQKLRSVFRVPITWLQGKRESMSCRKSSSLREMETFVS
Peptidase, Renin, sequence (P00797 67-406): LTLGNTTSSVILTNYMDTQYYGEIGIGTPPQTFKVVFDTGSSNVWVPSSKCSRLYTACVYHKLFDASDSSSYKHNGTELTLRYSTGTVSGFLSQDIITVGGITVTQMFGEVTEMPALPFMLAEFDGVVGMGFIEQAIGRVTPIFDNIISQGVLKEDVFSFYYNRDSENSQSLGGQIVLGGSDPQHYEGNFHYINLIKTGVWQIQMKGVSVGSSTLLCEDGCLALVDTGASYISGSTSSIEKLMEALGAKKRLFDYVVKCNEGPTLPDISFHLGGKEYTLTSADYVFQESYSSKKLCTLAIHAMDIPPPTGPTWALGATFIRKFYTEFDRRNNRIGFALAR
Progesterone PR-B, sequence (P06401 whole entry): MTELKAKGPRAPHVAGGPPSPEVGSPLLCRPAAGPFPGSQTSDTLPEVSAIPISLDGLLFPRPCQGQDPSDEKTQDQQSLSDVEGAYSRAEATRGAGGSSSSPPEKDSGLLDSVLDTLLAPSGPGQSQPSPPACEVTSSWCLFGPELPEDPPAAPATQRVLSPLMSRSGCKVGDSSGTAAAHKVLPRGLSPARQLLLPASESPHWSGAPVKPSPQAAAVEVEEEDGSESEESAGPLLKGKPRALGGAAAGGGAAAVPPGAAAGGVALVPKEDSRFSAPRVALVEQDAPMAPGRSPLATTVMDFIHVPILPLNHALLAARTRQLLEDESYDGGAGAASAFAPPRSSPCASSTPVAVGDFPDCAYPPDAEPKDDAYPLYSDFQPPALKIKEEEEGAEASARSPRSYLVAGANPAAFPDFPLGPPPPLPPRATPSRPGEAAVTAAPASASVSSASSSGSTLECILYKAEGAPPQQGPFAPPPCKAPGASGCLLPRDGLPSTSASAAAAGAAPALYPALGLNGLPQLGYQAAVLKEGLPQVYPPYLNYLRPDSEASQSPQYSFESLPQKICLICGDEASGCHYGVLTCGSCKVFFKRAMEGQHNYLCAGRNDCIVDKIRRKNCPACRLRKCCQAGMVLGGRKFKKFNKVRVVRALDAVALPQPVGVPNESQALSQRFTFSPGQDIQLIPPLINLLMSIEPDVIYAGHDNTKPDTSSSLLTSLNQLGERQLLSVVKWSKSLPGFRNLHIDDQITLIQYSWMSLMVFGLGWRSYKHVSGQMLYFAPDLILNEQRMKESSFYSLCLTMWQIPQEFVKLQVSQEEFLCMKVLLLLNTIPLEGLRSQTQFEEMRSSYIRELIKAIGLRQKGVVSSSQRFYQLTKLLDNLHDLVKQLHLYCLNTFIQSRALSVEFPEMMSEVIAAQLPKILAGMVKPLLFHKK
Aldosterone, sequence (P22199 whole entry): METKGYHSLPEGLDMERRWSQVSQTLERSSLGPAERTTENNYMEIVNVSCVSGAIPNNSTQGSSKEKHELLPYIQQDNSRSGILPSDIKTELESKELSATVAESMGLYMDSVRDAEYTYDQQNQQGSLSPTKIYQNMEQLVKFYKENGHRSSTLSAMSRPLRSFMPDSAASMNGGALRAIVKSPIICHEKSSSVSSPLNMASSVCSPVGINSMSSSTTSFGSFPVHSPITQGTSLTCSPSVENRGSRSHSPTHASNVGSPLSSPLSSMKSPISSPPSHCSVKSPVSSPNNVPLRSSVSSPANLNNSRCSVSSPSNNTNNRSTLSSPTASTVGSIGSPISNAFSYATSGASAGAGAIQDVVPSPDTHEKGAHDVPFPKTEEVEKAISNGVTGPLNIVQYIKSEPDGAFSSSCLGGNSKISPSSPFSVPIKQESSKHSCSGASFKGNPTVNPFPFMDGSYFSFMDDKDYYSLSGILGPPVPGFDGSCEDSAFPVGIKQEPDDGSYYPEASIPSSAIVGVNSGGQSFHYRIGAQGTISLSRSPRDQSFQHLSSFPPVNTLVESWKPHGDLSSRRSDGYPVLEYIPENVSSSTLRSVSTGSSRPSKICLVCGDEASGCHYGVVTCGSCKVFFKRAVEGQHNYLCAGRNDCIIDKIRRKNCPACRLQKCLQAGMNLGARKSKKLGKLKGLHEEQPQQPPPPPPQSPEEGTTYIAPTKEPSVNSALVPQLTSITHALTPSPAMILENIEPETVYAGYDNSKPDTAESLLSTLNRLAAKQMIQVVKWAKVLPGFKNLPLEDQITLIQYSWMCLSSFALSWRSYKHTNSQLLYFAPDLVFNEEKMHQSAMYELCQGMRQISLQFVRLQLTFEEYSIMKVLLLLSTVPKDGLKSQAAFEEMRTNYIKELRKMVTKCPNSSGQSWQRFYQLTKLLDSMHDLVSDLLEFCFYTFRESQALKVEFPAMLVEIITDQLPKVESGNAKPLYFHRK
Estrogen ERα, sequence (P03372 whole entry): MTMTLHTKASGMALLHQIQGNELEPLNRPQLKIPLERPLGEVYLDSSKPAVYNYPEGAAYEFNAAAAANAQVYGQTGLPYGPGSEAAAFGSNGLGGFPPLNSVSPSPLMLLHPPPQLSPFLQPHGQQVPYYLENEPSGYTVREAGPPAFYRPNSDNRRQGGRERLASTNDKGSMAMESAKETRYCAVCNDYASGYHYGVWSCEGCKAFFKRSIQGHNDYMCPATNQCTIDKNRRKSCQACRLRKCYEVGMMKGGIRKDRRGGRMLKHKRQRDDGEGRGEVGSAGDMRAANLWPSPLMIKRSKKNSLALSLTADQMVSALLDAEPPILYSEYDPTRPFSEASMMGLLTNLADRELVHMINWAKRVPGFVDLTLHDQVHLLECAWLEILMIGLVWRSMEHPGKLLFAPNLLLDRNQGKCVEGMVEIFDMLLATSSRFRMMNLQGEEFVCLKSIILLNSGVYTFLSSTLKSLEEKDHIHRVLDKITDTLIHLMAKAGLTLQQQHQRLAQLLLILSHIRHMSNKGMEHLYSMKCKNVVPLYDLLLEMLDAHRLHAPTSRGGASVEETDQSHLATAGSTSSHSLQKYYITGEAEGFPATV
Protein Tyrosine Kinase, Src, sequence (P12931 whole entry, looked up): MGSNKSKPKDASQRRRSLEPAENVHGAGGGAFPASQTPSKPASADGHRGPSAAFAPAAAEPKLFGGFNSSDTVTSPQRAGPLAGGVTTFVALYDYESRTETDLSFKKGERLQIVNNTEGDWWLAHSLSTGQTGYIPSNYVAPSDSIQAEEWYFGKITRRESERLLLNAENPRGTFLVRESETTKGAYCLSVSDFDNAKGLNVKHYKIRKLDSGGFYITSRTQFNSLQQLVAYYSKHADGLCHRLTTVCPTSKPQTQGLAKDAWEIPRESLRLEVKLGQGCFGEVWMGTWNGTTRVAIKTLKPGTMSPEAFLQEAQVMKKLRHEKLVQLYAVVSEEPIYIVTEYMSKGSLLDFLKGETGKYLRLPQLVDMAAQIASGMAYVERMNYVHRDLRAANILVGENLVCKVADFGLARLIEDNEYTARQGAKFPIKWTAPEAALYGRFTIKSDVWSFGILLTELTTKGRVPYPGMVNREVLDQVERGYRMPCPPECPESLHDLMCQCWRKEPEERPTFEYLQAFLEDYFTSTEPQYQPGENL
Sigma σ1, sequence (Q99720 whole entry): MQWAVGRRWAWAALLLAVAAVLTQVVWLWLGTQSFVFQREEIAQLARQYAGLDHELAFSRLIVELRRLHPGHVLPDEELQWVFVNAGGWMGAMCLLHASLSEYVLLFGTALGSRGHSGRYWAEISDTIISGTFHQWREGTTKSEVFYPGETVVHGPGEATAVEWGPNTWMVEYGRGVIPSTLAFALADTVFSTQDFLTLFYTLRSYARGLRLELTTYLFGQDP

For C[C@]12CC[C@H](CC(=O)O)CC1C(O)CC1C2CC[C@]2(C)C(=O)CCC12 (stereo in doubt) [CVie216-salt, 2-(6beta-hydroxy-17-oxoandrostane-3-yl) acetic acid], the inhibition at 10 µM [1] was -4%, the inhibition at 10 µM [2] was 2% and the inhibition at 10 µM [3] was -10%. The “diastolic function (in words)” value ([4]; IV infusion) was “ameliorated diastolic function”, the “overall cardiac function, SV and CO (in words)” value ([4]; IV infusion) was “improvement” and the “A late filling velocity of mitral inflow” value [4, 21] was 0.66 ± 0.17 m/s. The CO cardiac output [4, 21] was 165.45 ± 30.9 mL/min, the “DT deceleration time of E wave” value [4, 21] was 49.72 ± 12.56 ms and the “DT/E mitral deceleration index” value [4, 21] was 56.52 ± 16.45 s2/m. For the same compound, the “E early filling velocity of mitral inflow” value [4, 21] was 0.90 ± 0.13 m/s, the “E/A index of LV function” value [4, 21] was 1.42 ± 0.28 and the E/DT deceleration slope [4, 21] was 19.76 ± 8.27 m/s2. The “E/e′ index of LV filling pressure” value [4, 21] was 39.08 ± 5.04, the FS fractional shortening [4, 21] was 56.29 ± 9.95% and the HR heart rate [4, 21] was 221 ± 50 beat/min. The SV stroke volume [4, 21] was 0.76 ± 0.12 ml/beat, the “a′ TDI late relaxation velocity” value [4, 21] was 25.85 ± 6.98 cm/s and the “e′ TDI early relaxation velocity” value [4, 21] was 23.1 ± 1.96 cm/s. The “s′ TDI contraction velocity” value [4, 21] was 22.47 ± 2.45 cm/s, the “A late filling velocity of mitral inflow” value [4, 22] was 0.68 ± 0.15 m/s and the CO cardiac output [4, 22] was 181.82 ± 23.75 mL/min. The “DT deceleration time of E wave” value [4, 22] was 47.46 ± 10.17 ms, the “DT/E mitral deceleration index” value [4, 22] was 54.8 ± 12.84 s2/m and the “E early filling velocity of mitral inflow” value [4, 22] was 0.87 ± 0.09 m/s. For the same compound, the “E/A index of LV function” value [4, 22] was 1.34 ± 0.27, the E/DT deceleration slope [4, 22] was 19.38 ± 5.39 m/s2 and the “E/e′ index of LV filling pressure” value [4, 22] was “significantly reduced”. The FS fractional shortening [4, 22] was 55.19 ± 7.32%, the HR heart rate [4, 22] was 225 ± 50 beat/min and the SV stroke volume [4, 22] was 0.83 ± 0.15 ml/beat. The “a′ TDI late relaxation velocity” value [4, 22] was 26.66 ± 6.94 cm/s, the “e′ TDI early relaxation velocity” value [4, 22] was 24.48 ± 2.1 cm/s and the “s′ TDI contraction velocity” value [4, 22] was 22.68 ± 3.18 cm/s. For the same compound, the inhibition at 10 µM [5] was -6%, the inhibition at 10 µM [6] was 1% and the “% inhib” value [7] was −5%. For the same compound, the inhibition at 10 µM [8] was 5%, the inhibition at 10 µM [9] was 2% and the inhibition at 10 µM [10] was 2%. For the same compound, the inhibition at 10 µM [11] was 13%, the LD50 at 24 h ([12]; iv) was > 300 mg/kg and the LD50 at 24 h ([12]; oral, os) was > 700 mg/kg. The inhibition at 10 µM [13] was 4%, the inhibition at 10 µM [14] was -3% and the inhibition at 10 µM [15] was -2%. For the same compound, the inhibition at 10 µM [16] was 7%, the “% inhib” value [17] was 12% and the inhibition at 10 µM [18] was 0%. It also gave an inhibition at 10 µM [19] of -3% and an inhibition at 10 µM [20] of 7%.
